Reference: patent US20170327598A1, “SINGLE DOMAIN ANTIBODIES DIRECTED AGAINST INTRACELLULAR ANTIGENS” (SINGH MOLECULAR MEDICINE, LLC, priority 2014, published 2017)
Several values for one entry are separate records, joined by “and”; a condition that tells them apart may be missing. Equal values may be shown once. Read-outs that look alike come from different tables or passages of the source.

What was measured:
[1] = system: PANC-1 human pancreatic cancer xenograft
[2] = system: MDA-MB-231 human breast cancer xenograft; conditions: for Individual Tumor Measurements: listed as anti-STAT3 bacterial VHH13
[3] = system: VEGF-A production in ARPE-19 cells; test: VEGF-A ELISA in ARPE-19 retinal cells, Experiment 2;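 for all read-outs here: confluent ARPE-19 cells in 96-well plates, VEGF-A in culture supernatant quantified by ELISA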; type: cell-based, human; conditions: for pg VEGF-A per mL: based on collecting 0.1 ml of supernatant; for Mean (pg VEGF-A per mL): mean of Adj. Result, Wells 1-3; for Mean (pg VEGF-A per μg protein): mean of Wells 1-3; for Mean (pg VEGF-A per μg protein) / % Control: Experiment 2; for % Control: normalized for protein; for Mean Result (pg VEGF-A per mL) / pg VEGF-A per μg protein / Adj. Result (pg VEGF-A per mL): per well; for Adj. Result (pg VEGF-A per mL): adjusted for dilution; for Result (pg VEGF-A per mL): single reads

## Anti-STAT3 VHH13: anti-STAT3 single domain antibody, SEQ ID NO:3; bacterially produced form referred to as SBT-100
[1]; 500 μg/kg bw IP QDx14
  growth inhibition: no significant growth inhibition
  tumor doubling time: 23.02 days
[1]; treatment group, day 14 of dosing
  mean tumor size (±SE): 318.74 ± 29.76
[2]; 500 μg/kg bw IP QDx14
  % mean tumor growth inhibition: 33.64%
  tumor doubling time: 61.06 days
[2]; 500 μg/kg bw IP QDx14, day 14 of dosing
  mean tumor size (±SE): 118.86±15.94
[2]; Group 2, 500 μg/kg bw IP QDx14, single animals, Day 1
  Individual Tumor Measurements: 123.94 mm^3 and 85.93 mm^3 and 147.34 mm^3 and 115.91 mm^3 and 73.23 mm^3
[2]; Group 2, Day 1
  Tumor Measurements, group Mean: 102.61 mm^3
[2]; Group 2, Day 6
  Tumor Measurements, group Mean: 101.16 mm^3
[2]; Group 2, Day 9
  Tumor Measurements, group Mean: 112.44 mm^3
[2]; Group 2, Day 12
  Tumor Measurements, group Mean: 112.92 mm^3
[2]; Group 2, Day 16
  Tumor Measurements, group Mean: 118.86 mm^3
[2]; Group 2, Day 20
  Tumor Measurements, group Mean: 128.49 mm^3
[2]; Group 2, single animals, Day 6
  Individual Tumor Measurements: 114.91 mm^3 and 101.06 mm^3 and 148.72 mm^3 and 103.64 mm^3 and 82.59 mm^3
[2]; Group 2, single animals, Day 9
  Individual Tumor Measurements: 129.22 mm^3 and 112.60 mm^3 and 169.69 mm^3 and 108.37 mm^3 and 110.13 mm^3
[2]; Group 2, single animals, Day 12
  Individual Tumor Measurements: 176.04 mm^3 and 112.24 mm^3 and 185.08 mm^3 and 141.21 mm^3 and 91.22 mm^3
[2]; Group 2, single animals, Day 16
  Individual Tumor Measurements: 170.09 mm^3 and 139.56 mm^3 and 170.07 mm^3 and 144.51 mm^3
[2]; Group 2, single animals, Day 20
  Individual Tumor Measurements: 162.98 mm^3 and 96.43 mm^3 and 256.71 mm^3 and 119.42 mm^3
[3]; 0.1 μg/well, 12 Hr
  % Negative Control: 123.8%
  pg VEGF-A per mL: 18.6 pg VEGF-A per mL and 14.3 pg VEGF-A per mL and 15 pg VEGF-A per mL
  Mean (pg VEGF-A per mL): 159.7 pg VEGF-A per mL
  Mean (pg VEGF-A per μg protein): 2.540 pg VEGF-A per μg protein
  % Control: 134.4%
  Mean Result (pg VEGF-A per mL): 37.2 pg VEGF-A per mL and 28.54 pg VEGF-A per mL and 30.06 pg VEGF-A per mL
  pg VEGF-A per μg protein: 3 pg VEGF-A per μg protein and 2.1 pg VEGF-A per μg protein and 2.4 pg VEGF-A per μg protein
  Adj. Result (pg VEGF-A per mL): 186.02 pg VEGF-A per mL and 142.71 pg VEGF-A per mL and 150.31 pg VEGF-A per mL
  Result (pg VEGF-A per mL): 30.38 pg VEGF-A per mL and 36.84 pg VEGF-A per mL and 37.57 pg VEGF-A per mL and 29.44 pg VEGF-A per mL and 27.64 pg VEGF-A per mL and 29.74 pg VEGF-A per mL
[3]; 0.1 μg/well, 24 Hr
  % Negative Control: 93.6%
  pg VEGF-A per mL: 27.9 pg VEGF-A per mL and 28 pg VEGF-A per mL and 30.4 pg VEGF-A per mL
  Mean (pg VEGF-A per mL): 287.4 pg VEGF-A per mL
  Mean (pg VEGF-A per μg protein): 4.152 pg VEGF-A per μg protein
  % Control: 94.1%
  Mean Result (pg VEGF-A per mL): 55.73 pg VEGF-A per mL and 56.02 pg VEGF-A per mL and 60.72 pg VEGF-A per mL
  pg VEGF-A per μg protein: 3.8 pg VEGF-A per μg protein and 4.0 pg VEGF-A per μg protein and 4.7 pg VEGF-A per μg protein
  Adj. Result (pg VEGF-A per mL): 278.66 pg VEGF-A per mL and 280.09 pg VEGF-A per mL and 303.58 pg VEGF-A per mL
  Result (pg VEGF-A per mL): 58.86 pg VEGF-A per mL and 52.60 pg VEGF-A per mL and 59.52 pg VEGF-A per mL and 52.51 pg VEGF-A per mL and 64.54 pg VEGF-A per mL and 56.89 pg VEGF-A per mL
[3]; 0.1 μg/well, 48 Hr
  % Negative Control: 100%
  pg VEGF-A per mL: 94.7 pg VEGF-A per mL and 85.1 pg VEGF-A per mL and 110 pg VEGF-A per mL
  Mean (pg VEGF-A per mL): 966 pg VEGF-A per mL
  Mean (pg VEGF-A per μg protein): 14.067 pg VEGF-A per μg protein
  % Control: 107.4%
  Mean Result (pg VEGF-A per mL): 189.30 pg VEGF-A per mL and 170.27 pg VEGF-A per mL and 220.04 pg VEGF-A per mL
  pg VEGF-A per μg protein: 14.1 pg VEGF-A per μg protein and 13.1 pg VEGF-A per μg protein and 15.1 pg VEGF-A per μg protein
  Adj. Result (pg VEGF-A per mL): 946.50 pg VEGF-A per mL and 851.33 pg VEGF-A per mL and 1100.22 pg VEGF-A per mL
  Result (pg VEGF-A per mL): 195.75 pg VEGF-A per mL and 182.85 pg VEGF-A per mL and 173.80 pg VEGF-A per mL and 166.73 pg VEGF-A per mL and 220.87 pg VEGF-A per mL and 219.22 pg VEGF-A per mL
[3]; 1 μg/well, 12 Hr
  % Negative Control: 110.5%
  pg VEGF-A per mL: 12.9 pg VEGF-A per mL and 13.7 pg VEGF-A per mL and 16.1 pg VEGF-A per mL
  Mean (pg VEGF-A per mL): 142.5 pg VEGF-A per mL
  Mean (pg VEGF-A per μg protein): 2.273 pg VEGF-A per μg protein
  % Control: 120.3%
  Mean Result (pg VEGF-A per mL): 25.82 pg VEGF-A per mL and 27.43 pg VEGF-A per mL and 32.23 pg VEGF-A per mL
  pg VEGF-A per μg protein: 2 pg VEGF-A per μg protein and 2.2 pg VEGF-A per μg protein and 2.7 pg VEGF-A per μg protein
  Adj. Result (pg VEGF-A per mL): 129.12 pg VEGF-A per mL and 137.14 pg VEGF-A per mL and 161.16 pg VEGF-A per mL
  Result (pg VEGF-A per mL): 26.74 pg VEGF-A per mL and 24.91 pg VEGF-A per mL and 26.62 pg VEGF-A per mL and 28.24 pg VEGF-A per mL and 33.18 pg VEGF-A per mL and 31.29 pg VEGF-A per mL
[3]; 1 μg/well, 24 Hr
  % Negative Control: 106.8%
  pg VEGF-A per mL: 37.3 pg VEGF-A per mL and 31.2 pg VEGF-A per mL and 29.9 pg VEGF-A per mL
  Mean (pg VEGF-A per mL): 327.9 pg VEGF-A per mL
  Mean (pg VEGF-A per μg protein): 4.084 pg VEGF-A per μg protein
  Mean Result (pg VEGF-A per mL): 74.61 pg VEGF-A per mL and 62.42 pg VEGF-A per mL and 59.71 pg VEGF-A per mL
  Adj. Result (pg VEGF-A per mL): 373.06 pg VEGF-A per mL and 312.11 pg VEGF-A per mL and 298.74 pg VEGF-A per mL
  Result (pg VEGF-A per mL): 78.44 pg VEGF-A per mL and 70.78 pg VEGF-A per mL and 68.61 pg VEGF-A per mL and 56.23 pg VEGF-A per mL and 63.71 pg VEGF-A per mL and 55.71 pg VEGF-A per mL
[3]; 1 μg/well, 48 Hr
  pg VEGF-A per mL: 87.6 pg VEGF-A per mL and 101.9 pg VEGF-A per mL and 111.9 pg VEGF-A per mL
  Mean (pg VEGF-A per mL): 1004.7 pg VEGF-A per mL
  Mean (pg VEGF-A per μg protein): 13.796 pg VEGF-A per μg protein
  % Control: 105.4%
  Mean Result (pg VEGF-A per mL): 175.22 pg VEGF-A per mL and 203.89 pg VEGF-A per mL and 223.71 pg VEGF-A per mL
  pg VEGF-A per μg protein: 12.4 pg VEGF-A per μg protein and 13.6 pg VEGF-A per μg protein and 15.3 pg VEGF-A per μg protein
  Adj. Result (pg VEGF-A per mL): 876.08 pg VEGF-A per mL and 1019.44 pg VEGF-A per mL and 1118.55 pg VEGF-A per mL
  Result (pg VEGF-A per mL): 168.84 pg VEGF-A per mL and 181.59 pg VEGF-A per mL and 195.75 pg VEGF-A per mL and 212.03 pg VEGF-A per mL and 225.75 pg VEGF-A per mL and 221.67 pg VEGF-A per mL
[3]; 10 μg/well, 12 Hr
  % Negative Control: 107.8%
  pg VEGF-A per mL: 15.2 pg VEGF-A per mL and 12.2 pg VEGF-A per mL and 14.3 pg VEGF-A per mL
  Mean (pg VEGF-A per mL): 139.00 pg VEGF-A per mL
  Mean (pg VEGF-A per μg protein): 2.148 pg VEGF-A per μg protein
  % Control: 113.7%
  Mean Result (pg VEGF-A per mL): 30.43 pg VEGF-A per mL and 24.41 pg VEGF-A per mL and 28.58 pg VEGF-A per mL
  pg VEGF-A per μg protein: 2.5 pg VEGF-A per μg protein and 1.9 pg VEGF-A per μg protein and 2 pg VEGF-A per μg protein
  Adj. Result (pg VEGF-A per mL): 152.14 pg VEGF-A per mL and 122.07 pg VEGF-A per mL and 142.92 pg VEGF-A per mL
